Key:
PRMT5/MEP50 complex = PRMT5/MEP50 complex (Homo sapiens (Human), UniProt O14744); test: PRMT5 biochemical assay (3H-SAM filter plate, histone H2A substrate); conditions: PRMT5/MEP50 5 nM, histone H2A 5 μM, SAM 1 μM; read-out: PRMT5 IC50
Experimental: Biochemical Assay Protocol
Compounds were solubilized and 3-fold diluted in 100% DMSO. […] Standard reactions were performed in a total volume of 50 μl in assay buffer, with histone H2A (5 μM final) as substrate. To this was added the PRMT5/MEP50 complex diluted to provide a final assay concentration of 5 nM and the compounds were allowed to preincubate for 15 to 20 minutes at room temperature. The reaction was initiated by adding S-[3H-methyl]-adenosyl-L-methionine (PerkinElmer) to final concentration of 1 μM. Following a 60 minutes incubation at 30° C., the reaction was stopped by adding 100 μL of 20% TCA. Each reaction was spotted onto filter plate (MultiScreen FB Filter Plate, Millipore), and washed 5 times with PBS buffer, Scintillation fluid was added to the filter plate and read in a scintillation counter. IC50 values were determined by fitting the data to the standard 4 parameters with Hill Slope using GraphPad Prism software.

sDMA = test: Western blot for symmetric di-methyl arginine (sDMA) IC50 in Granta cells; format: cell-based; conditions: Homo sapiens, 72 h; Granta-519 cell line, 3 days
Granta-519 cells = test: Cell proliferation assay on Granta-519 cells (CCK-8, day 10); format: cell-based; conditions: Homo sapiens, 240 h, Granta-519 cell line, read-out: Prolif. IC50
Experimental: Cell Proliferation Assay to Determine IC50 on Granta-519 Cells
Granta-519 cells were maintained in PRMI 1640 (Corning Cellgro, Catalog #: 10-040-CV) medium supplemented with 10% v/v FBS (GE Healthcare, Catalog #: SH30910.03). Compounds were dissolved in DMSO to make 10 mM stocks and stored at −20° C. Nine-point, 3-fold serial dilutions were made with DMSO with top concentration at 1 mM (working stocks).
On day of experiment, compound working stocks were further diluted at 1:50 with fresh medium in 96 well plate, and 10 μL of diluted drugs were added to a new 96 well plate for proliferation assay. Cells growing at exponential phase were spun down at 1500 rpm for 4 min and resuspend in fresh medium to reach a density of 0.5×10^6 cells/ml. 200 ul of cells were added to 96 well plate containing diluted drugs and incubated for 3 days. DMSO was used a vehicle control.
One day 3, 10 μL of Cell Counting Kit-8 (CCK-8, Jojindo, CK04-13) solution was added to a new 96 well plate. Cells incubated with drugs for 3 days were resuspended by pipetting up and down, and 100 μL of cells were transferred to 96 well plate containing CCK-8 reagent to measure viable cells. Plates were incubated in CO2 incubator for 2 hours and OD450 values were measured with a microplate reader (iMark microplate reader, Bio-Rad).
For re-plating, compound working stocks were diluted at 1:50 with fresh medium and 10 μL of diluted drugs were added to a new 96 well plate. Cells from Day 3 plate (50 ul) were added to 96 well plate containing fresh drug and additional 150 μL of fresh medium was added to reach 200 μL volume. Plate was returned to CO2 incubator and incubated for 3 more days. Viable cells measurement and re-plating were repeated on day 6, and the final viable cells measurement was taken on day 10.
Percentage of viable cells, relative to DMSO vehicle control, were calculated and plotted in Graphpad Prism ([Inhibitor] vs. normalized response−Variable slope) to determine proliferation IC50 values on day 10.

PRMT5/MEP50 complex, sequence (O14744 whole entry): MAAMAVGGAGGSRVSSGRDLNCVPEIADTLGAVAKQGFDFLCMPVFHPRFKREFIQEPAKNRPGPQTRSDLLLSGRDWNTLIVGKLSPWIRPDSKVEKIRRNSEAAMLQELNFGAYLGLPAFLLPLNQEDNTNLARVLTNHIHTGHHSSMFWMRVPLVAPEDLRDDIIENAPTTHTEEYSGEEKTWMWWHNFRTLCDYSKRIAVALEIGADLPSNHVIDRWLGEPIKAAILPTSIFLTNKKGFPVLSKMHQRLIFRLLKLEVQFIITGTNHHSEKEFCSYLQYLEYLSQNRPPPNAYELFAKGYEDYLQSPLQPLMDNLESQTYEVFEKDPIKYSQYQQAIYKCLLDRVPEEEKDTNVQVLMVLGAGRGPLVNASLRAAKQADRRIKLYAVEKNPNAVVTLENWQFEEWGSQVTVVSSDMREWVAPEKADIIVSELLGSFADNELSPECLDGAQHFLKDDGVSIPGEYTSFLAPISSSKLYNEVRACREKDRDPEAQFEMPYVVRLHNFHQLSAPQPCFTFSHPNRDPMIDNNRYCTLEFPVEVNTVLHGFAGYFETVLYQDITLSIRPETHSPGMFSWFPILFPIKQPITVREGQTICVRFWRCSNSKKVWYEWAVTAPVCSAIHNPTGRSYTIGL
PRMT5/MEP50 complex, sequence (Q9BQA1 whole entry partner): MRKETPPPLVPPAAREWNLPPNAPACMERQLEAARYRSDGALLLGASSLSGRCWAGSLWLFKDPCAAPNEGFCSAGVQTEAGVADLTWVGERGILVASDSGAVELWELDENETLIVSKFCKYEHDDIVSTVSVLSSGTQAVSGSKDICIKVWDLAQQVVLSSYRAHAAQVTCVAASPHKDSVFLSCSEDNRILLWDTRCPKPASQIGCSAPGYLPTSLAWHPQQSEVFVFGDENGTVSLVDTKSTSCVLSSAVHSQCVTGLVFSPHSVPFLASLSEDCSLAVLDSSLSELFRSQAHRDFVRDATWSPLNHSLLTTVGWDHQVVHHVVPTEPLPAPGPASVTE

SMILES	IC50 (PRMT5/MEP50 complex) [nM]	IC50 (sDMA) [nM]	IC50 (Granta-519 cells) [nM]
C[C@@]1(O)[C@@H](COc2ccc3ccc(N)nc3c2)O[C@@H](n2cc(F)c3c(N)ncnc32)[C@@H]1O [Example 6, (2R,3S,4R,5R)-5-(4-amino-5-fluoro-7H-pyrrolo[2,3-d]pyrimidin-7-yl)-2-(((2-aminoquinolin-7-yl)oxy)methyl)-3-methyltetrahydrofuran-3,4-diol]	0.85	1	30
CSC[C@H]1O[C@@H](n2ccc3c(N)ncnc32)[C@H](O)[C@]1(C)O [Example 17, (2S,3S,4R,5R)-5-(4-amino-7H-pyrrolo[2,3-d]pyrimidin-7-yl)-3-methyl-2-((methylthio)methyl)tetrahydrofuran-3,4-diol]	900	1000	200000
Cc1cc([C@@H](O)[C@H]2O[C@@H](n3ccc4c(N)ncnc43)[C@H](O)[C@]2(C)O)ccc1Cl [Example 56, (2R,3S,4R,5R)-5-(4-amino-7H-pyrrolo[2,3-d]pyrimidin-7-yl)-2-((R)-(4-chloro-3-methylphenyl)(hydroxy)methyl)-3-methyltetrahydrofuran-3,4-diol]	68		203
C#C[C@@]1(O)[C@@H](COc2ccc3ccc(N)nc3c2)O[C@@H](n2ccc3c(N)ncnc32)[C@@H]1O [Example 3, (2R,3S,4R,5R)-5-(4-amino-7H-pyrrolo[2,3-d]pyrimidin-7-yl)-2-(((2-aminoquinolin-7-yl)oxy)methyl)-3-ethynyltetrahydrofuran-3,4-diol]	1.6	44.2	
Cc1cc([C@@H](O)[C@H]2O[C@@H](n3ccc4c(C)ncnc43)[C@H](O)[C@]2(C)O)ccc1Cl [Example 57, (2R,3S,4R,5R)-2-((R)-(4-chloro-3-methylphenyl)(hydroxy)methyl)-3-methyl-5-(4-methyl-7H-pyrrolo[2,3-d]pyrimidin-7-yl)tetrahydrofuran-3,4-diol]	11		913
Cc1ncnc2c1ccn2[C@@H]1O[C@H](COc2ccn3c(C)cnc3c2)[C@@](C)(O)[C@H]1O [Example 67, (2R,3S,4R,5R)-3-methyl-5-(4-methyl-7H-pyrrolo[2,3-d]pyrimidin-7-yl)-2-(((3-methylimidazo[1,2-a]pyridin-7-yl)oxy)methyl)tetrahydrofuran-3,4-diol]	1	46	
C[C@@]1(O)[C@@H](Cc2ccc(Cl)c(Cl)c2)O[C@@H](n2ccc3c(N)ncnc32)[C@@H]1O [Example 50, (2R,3S,4R,5R)-5-(4-amino-7H-pyrrolo[2,3-d]pyrimidin-7-yl)-2-(3,4-dichlorobenzyl)-3-methyltetrahydrofuran-3,4-diol]	17	9000	
Cc1ncnc2c1ccn2[C@@H]1O[C@H]([C@H](O)c2ccc(C(F)(F)F)cc2)[C@@](C)(O)[C@H]1O [Example 62, (2R,3S,4R,5R)-2-((R)-hydroxy(4-(trifluoromethyl)phenyl)methyl)-3-methyl-5-(4-methyl-7H-pyrrolo[2,3-d]pyrimidin-7-yl)tetrahydrofuran-3,4-diol]	7	415	
Nc1ccc2ccc(OC[C@H]3O[C@@H](n4ccc5c(N)ncnc54)[C@H](O)[C@@]3(O)C(F)(F)F)cc2n1 [Example 2, (2R,3S,4R,5R)-5-(4-amino-7H-pyrrolo[2,3-d]pyrimidin-7-yl)-2-(((2-aminoquinolin-7-yl)oxy)methyl)-3-(trifluoromethyl)tetrahydrofuran-3,4-diol]	1.9	21	
Cc1ncnc2c1ccn2[C@@H]1O[C@H](COc2ccc3cc(Br)c(N)nc3c2)[C@@](C)(O)[C@H]1O [Example 55, (2R,3S,4R,5R)-2-(((2-amino-3-bromoquinolin-7-yl)oxy)methyl)-3-methyl-5-(4-methyl-7H-pyrrolo[2,3-d]pyrimidin-7-yl)tetrahydrofuran-3,4-diol]	0.8	5.1	
